Assay results published in ChEMBL document CHEMBL5727031, “Metabotropic glutamate receptor negative allosteric modulators (NAMS) and uses thereof” (2018).

Assays:
[1] = (§1) In Vitro GIRK Thallium Flux Assay (2.5 minutes): Human Embryonic Kidney (HEK-293) cell lines co-expressing rat mGlu receptors 2, 3, 4, 6, 7 or 8 and G protein-coupled inwardly-rectifying potassium (GIRK) channels_ENREF_54 were grown in Growth Media containing 45% DMEM, 45% F-12, 10% FBS, 20 mM HEPES, 2 mM L-glutamine, antibiotic/antimycotic, non-essential amino acids, 700 μg/ml G418, and 0.6 μg/ml puromycin at 37° C. in the presence of 5% CO2. All cell culture reagents were purchased from Invitrogen Corp. (Carlsbad, Calif.) unless otherwise noted. Compound activity at the group II (mGlu2 and mGlu3) mGlus was assessed using thallium flux through GIRK channels. Briefly, cells were plated into 384-well, black-walled, clear-bottomed poly-D-lysine-coated plates at a density of 15,000 cells/20 μL/well in DMEM containing 10% dialyzed FBS, 20 mM HEPES, and 100 units/mL penicillin/streptomycin (assay media). Plated cells were incubated overnight at 37° C. in the presence of 5% CO2. The following day, the medium was exchanged from the cells to assay buffer [Hanks' balanced salt solution (Invitrogen) containing 20 mM HEPES, pH 7.3] using an ELX405 microplate washer (BioTek), leaving 20 μL/well, followed by the addition of 20 μL/well FluoZin2-AM (330 nM final concentration) indicator dye (Invitrogen; prepared as a stock in DMSO and mixed in a 1:1 ratio with Pluronic acid F-127) in assay buffer. Cells were incubated for 1 h at room temperature, and the dye exchanged to assay buffer using an ELX405, leaving 20 μL/well. Test compounds were diluted to 2 times their final desired concentration in assay buffer (0.3% DMSO final concentration). Agonists were diluted in thallium buffer [125 mM sodium bicarbonate (added fresh the morning of the experiment), 1 mM magnesium sulfate, 1.8 mM calcium sulfate, 5 mM glucose, 12 mM thallium sulfate, and 10 mM HEPES, pH 7.3] at 5 times the final concentration to be assayed. Cell plates and compound plates were loaded onto a kinetic imaging plate reader (FDSS 6000 or 7000; Hamamatsu Corporation, Bridgewater, N.J.). Appropriate baseline readings were taken (10 images at 1 Hz; excitation, 470±20 nm; emission, 540±30 nm) and test compounds were added in a 20 μL volume and incubated for either 2.5 min or 60 min as indicated before the addition of 10 μL of thallium buffer with or without agonist. After the addition of agonist, data were collected for approximately an additional 2.5 min. Data were analyzed using Excel (Microsoft Corp, Redmond, Wash.). The slope of the fluorescence increase beginning 5 s after thallium/agonist addition and ending 15 s after thallium/agonist addition was calculated, corrected to vehicle and maximal agonist control slope values, and plotted in using either XLfit (ID Business Solutions Ltd) or Prism software (GraphPad Software, San Diego, Calif.) to generate concentration-response curves. Potencies were calculated from fits using a four-point parameter logistic equation. For concentration-response curve experiments, compounds were serially diluted 1:3 into 10 point concentration response curves and were transferred to daughter plates using an Echo acoustic plate reformatter (Labcyte, Sunnyvale, Calif.). Test compounds were applied and followed by EC80 concentrations of glutamate.; conditions: HEK293, 2.5 min
[2] = as §1, with “Assay (60” for “Assay (2.5”, “additional 60” for “additional 2.5”; conditions: HEK293, 1 h
[3] = as §1; conditions: HEK293, 2.5 min; remark: listed apart in the source
[4] = as §1, with “Assay (60” for “Assay (2.5”, “additional 60” for “additional 2.5”; conditions: HEK293, 1 h; remark: listed apart in the source

Row | SMILES | EC50 [1] | EC50 [2] | EC50 [3] | EC50 [4]
1 | O/N=C\c1cc(-c2cccc(-c3csc(-c4ccccc4)n3)c2)ccc1F | > 30000 nM | > 10000 nM | > 30000 nM | > 10000 nM
2 | Fc1ccc(-c2cccc(-c3nsc(-c4ccoc4)n3)c2)cc1 | 3630 nM | 3710 nM | > 10000 nM | > 10000 nM
3 | c1ccc(-c2nc(-c3cccc(-c4cccc(-c5nn[nH]n5)c4)c3)cs2)cc1 | – | – | – | > 10000 nM
4 | O=C(O)c1cccc(-c2cccc(-c3cc(-c4ccccc4)sn3)c2)c1 | – | – | – | > 10000 nM
5 | c1ccc(-c2cccc(-c3nsc(-c4ccccc4)n3)c2)cc1 | 320 nM | 50 nM | 2280 nM | 450 nM
6 | Cc1noc(C)c1-c1cc(C(F)(F)F)nc(-c2cccc(-c3ccc(F)c(C(=O)O)c3)c2)n1 | – | > 10000 nM | – | > 10000 nM
7 | Clc1ccc(-c2nc(-c3cccc(-c4ccccc4)c3)cs2)cn1 | 3830 nM | 270 nM | > 10000 nM | 830 nM
8 | Cc1ccccc1-c1cc(C(F)(F)F)nc(-c2cccc(-c3ccc(F)c(C(=O)O)c3)c2)n1 | – | – | – | > 10000 nM
9 | O=C(O)c1cccc(-c2cccc(-c3cn(-c4ccccc4)c(-c4ccccc4)n3)c2)c1 | – | > 10000 nM | – | –
10 | c1ccc(-c2cccc(-c3csc(-c4ccc5ccccc5c4)n3)c2)cc1 | > 10000 nM | 4980 nM | > 30000 nM | > 10000 nM
11 | Cc1cc2c(cc1C(F)(F)F)NC(=O)CC(c1cccc(Oc3cccc(Br)c3)c1)=N2 | – | > 10000 nM | – | –
12 | Fc1ccc(-c2cccc(-c3nsc(-c4ccccc4)n3)c2)cc1 | 100 nM | 50 nM | 520 nM | 460 nM
13 | c1ccc(-c2cccc(-c3noc(-c4ccccc4)n3)c2)cc1 | 1330 nM | 790 nM | > 10000 nM | > 10000 nM
14 | NS(=O)(=O)c1cccc(-c2cn(-c3nc(-c4ccc(C(F)(F)F)nc4)cc(C(F)(F)F)n3)cn2)c1 | – | > 10000 nM | – | –
15 | Fc1ccc(-c2cccc(-c3csc(-c4ccoc4)n3)c2)cc1 | 2260 nM | 2500 nM | > 10000 nM | > 10000 nM
16 | Fc1ccc(-c2cccc(-c3csc(-c4cc5ccccc5o4)n3)c2)cc1 | 2570 nM | 1930 nM | 3320 nM | > 10000 nM
17 | O=C(O)c1cc(-c2cccc(Oc3nc(-c4ccco4)cc(C(F)(F)F)n3)c2)ccc1F | – | > 30000 nM | – | –
18 | O=C(O)c1ccccc1-c1cccc(-c2csc(-c3ccccc3)n2)c1 | – | > 10000 nM | – | > 10000 nM
19 | Cc1cc(-c2cccc(C3CC(=O)Nc4cc(NC(=O)OCc5ccccc5)ccc4N3)c2)cc(C)n1 (racemic) | > 10000 nM | – | – | –
20 | O=C(O)c1cc(-c2cccc(-c3nc(-c4cc(C(F)(F)F)cc(C(F)(F)F)c4)cc(C(F)(F)F)n3)c2)ccc1F | – | – | – | > 10000 nM
21 | Cc1cc(NC(=O)OC(C)(C)C)c(NC(=O)CC(=O)c2cccc(Oc3ccccc3)c2)cc1C(F)(F)F | 2210 nM | 1190 nM | 2620 nM | 1930 nM
22 | O=C(O)c1cccc(-c2cccc(-c3nc(-c4ccccc4)nn3-c3ccccc3)c2)c1 | – | > 10000 nM | – | > 10000 nM
23 | c1ccc(-c2cccc(-c3csc(-c4ccccc4)n3)c2)cc1 | – | – | – | > 10000 nM
24 | COc1ccc(-c2cccc(-c3csc(-c4ccccc4)n3)c2)cc1 | 1730 nM | 2140 nM | 1770 nM | 2860 nM
25 | Fc1ccccc1-c1cccc(-c2nsc(-c3ccccc3)n2)c1 | 890 nM | 110 nM | > 10000 nM | > 10000 nM
26 | c1ccc(-c2cccc(-c3nc(-c4cccs4)n(-c4ccccc4)n3)c2)cc1 | > 10000 nM | 3670 nM | 4290 nM | 1680 nM
27 | O=C(O)c1ccc(-c2cccc(-c3nc(-c4ccc(C(F)(F)F)nc4)cc(C(F)(F)F)n3)c2)cc1 | – | > 10000 nM | – | > 10000 nM
28 | COc1ccc(-c2nc(-c3cccc(-c4ccccc4)c3)cs2)cc1OC | 2580 nM | 1100 nM | 4020 nM | > 10000 nM
